Source: patent US12655106B2 (Eikonizo Therapeutics, Inc., priority 2021, dated 2026)

Key:
Full length Human HDAC8 = target: T1, Full length Human HDAC8 (Homo sapiens, UniProt Q9BY41); test: Caliper endpoint assay for HDAC enzymatic activity (HDAC8); assay type: biochemical; conditions: in vitro enzymatic, 30 min pre-incubation, 1 μM substrate peptide
T1 construct: Full length Human HDAC8; HIS (N); host or cells: baculovirus expression system
T1 sequence (Q9BY41 1-377): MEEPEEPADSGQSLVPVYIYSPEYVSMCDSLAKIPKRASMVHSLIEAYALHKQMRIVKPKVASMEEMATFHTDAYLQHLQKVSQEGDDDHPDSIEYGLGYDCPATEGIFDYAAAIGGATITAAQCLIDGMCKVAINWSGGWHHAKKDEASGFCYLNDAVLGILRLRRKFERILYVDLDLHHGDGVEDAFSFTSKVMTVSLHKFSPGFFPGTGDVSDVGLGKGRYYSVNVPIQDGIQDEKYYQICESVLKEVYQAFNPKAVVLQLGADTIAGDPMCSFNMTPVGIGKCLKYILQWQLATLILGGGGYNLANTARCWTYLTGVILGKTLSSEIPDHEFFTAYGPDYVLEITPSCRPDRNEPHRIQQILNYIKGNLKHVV

Full length Human HDAC6 = target: T2, Full length Human HDAC6 (Homo sapiens, UniProt Q9UBN7); test: Caliper endpoint assay for HDAC enzymatic activity (HDAC6); assay type: biochemical; conditions: for IC50: in vitro enzymatic, Caliper endpoint assay, 30 min pre-incubation, 1 μM substrate peptide; for Selectivity (6 v 8): ratio of HDAC8 IC50/HDAC6 IC50
T2 construct: Full length Human HDAC6; FLAG (C); host or cells: baculovirus expression system
T2 sequence (Q9UBN7 1-1215): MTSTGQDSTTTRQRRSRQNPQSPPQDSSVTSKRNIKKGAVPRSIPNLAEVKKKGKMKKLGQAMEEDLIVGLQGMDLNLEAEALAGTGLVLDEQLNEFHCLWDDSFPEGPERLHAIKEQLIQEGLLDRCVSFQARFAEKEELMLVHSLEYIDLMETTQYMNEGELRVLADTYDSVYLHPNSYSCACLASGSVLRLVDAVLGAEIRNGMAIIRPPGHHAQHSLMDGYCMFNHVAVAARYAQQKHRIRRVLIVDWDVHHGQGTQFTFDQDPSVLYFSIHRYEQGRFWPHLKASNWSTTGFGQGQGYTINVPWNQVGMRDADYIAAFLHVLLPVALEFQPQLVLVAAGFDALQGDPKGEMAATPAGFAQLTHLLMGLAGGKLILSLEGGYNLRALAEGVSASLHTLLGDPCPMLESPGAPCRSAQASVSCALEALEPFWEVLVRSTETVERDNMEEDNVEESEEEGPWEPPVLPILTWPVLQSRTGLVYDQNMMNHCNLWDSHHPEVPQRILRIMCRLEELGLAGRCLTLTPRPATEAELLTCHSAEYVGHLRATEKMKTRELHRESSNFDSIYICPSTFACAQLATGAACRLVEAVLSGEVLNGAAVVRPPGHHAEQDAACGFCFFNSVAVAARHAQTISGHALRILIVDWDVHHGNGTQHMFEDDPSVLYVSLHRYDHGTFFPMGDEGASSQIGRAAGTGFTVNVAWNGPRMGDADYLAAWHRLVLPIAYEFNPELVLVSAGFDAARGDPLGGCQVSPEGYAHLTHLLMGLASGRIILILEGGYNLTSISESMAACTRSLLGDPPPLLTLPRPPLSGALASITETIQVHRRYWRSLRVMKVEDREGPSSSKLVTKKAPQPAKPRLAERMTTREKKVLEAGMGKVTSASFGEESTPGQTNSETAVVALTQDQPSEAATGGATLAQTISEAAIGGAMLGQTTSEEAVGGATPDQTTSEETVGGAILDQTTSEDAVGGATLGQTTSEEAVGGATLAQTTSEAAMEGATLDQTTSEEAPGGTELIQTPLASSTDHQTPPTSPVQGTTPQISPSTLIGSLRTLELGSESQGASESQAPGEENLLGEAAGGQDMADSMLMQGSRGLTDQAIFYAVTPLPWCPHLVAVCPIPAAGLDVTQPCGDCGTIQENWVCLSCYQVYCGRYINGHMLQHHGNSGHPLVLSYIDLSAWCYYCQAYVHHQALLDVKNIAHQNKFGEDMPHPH

Compound | IC50 (Full length Human HDAC8) [µM] | IC50 (Full length Human HDAC6) [nM] | Selectivity (6 v 8) (Full length Human HDAC6)
Cc1cc2c(cc1C(=O)NO)CCN(C1CC3(CCCCC3)C1)C2 | 10 to 100 | > 100000 | V (V: >1000)
O=C(NO)c1cc(F)c2c(c1)CCN(C[C@@H]1CCC3(CCCCC3)C1)C2 (single isomer, unassigned) [Compound 107] | 10 to 100 | 1 to 100 | 
O=C(NO)c1cc(F)c2c(c1)CCN(C[C@H]1CCC3(CCCCC3)C1)C2 (single isomer, unassigned) [Compound 108] | 10 to 100 | 1 to 100 | 
O=C(NO)c1cc(F)c2c(c1)CCN([C@H]1CCC3(CCCCC3)C1)C2 (single isomer, unassigned) [Compound 109] | 10 to 100 | 1 to 100 | 
O=C(NO)c1cc(F)c2c(c1)CCN([C@@H]1CCC3(CCCCC3)C1)C2 (single isomer, unassigned) [Compound 110] | 10 to 100 | 1 to 100 | 
O=C(NO)c1cc(F)c2c(c1)C[C@@H]1CCCN1C2 (single isomer, unassigned) [Compound 119] | 10 to 100 | 100 to 1000 | III (III: >10-100)
CC1(C)C[C@H]2Cc3cc(C(=O)NO)cc(F)c3CN2C1 (single isomer, unassigned) [Compound 125] |  |  | III (III: >10-100)
O=C(NO)c1cc(F)c2c(c1)C[C@@H]1COCCN1C2 (single isomer, unassigned) [Compound 129] | > 100 | 10000 to 100000 | 
O=C(NO)c1cc(F)c2c(c1)C[C@H]1COCCN1C2 (single isomer, unassigned) [Compound 130] | > 100 | 10000 to 100000 | 
O=C(NO)c1ccc2c(c1)C[C@H]1COCC(=O)N1C2 (single isomer, unassigned) [Compound 134] | 1 to 10 | 1 to 100 | 
O=C(NO)c1cc(F)c2c(c1)C[C@H]1CC3(CCCCC3)CN1C2 (single isomer, unassigned) [Compound 135] | 1 to 10 | 100 to 1000 | 
O=C(NO)c1cc(F)c2c(c1)C[C@@H]1CC3(CCCCC3)CN1C2 (single isomer, unassigned) [Compound 136] | 1 to 10 | 1 to 100 | 
O=C(NO)c1cc(F)c2c(c1)C[C@@H]1CCC3(CCCCC3)CN1C2 (single isomer, unassigned) [Compound 137] | 10 to 100 | 100 to 1000 | 
O=C(NO)c1cc(F)c2c(c1)CCN1CCCC[C@@H]21 (single isomer, unassigned) [Compound 139] | 1 to 10 | 1 to 100 | 
O=C(NO)c1cc(F)c2c(c1)CCN1CCCC[C@H]21 (single isomer, unassigned) [Compound 140] | 10 to 100 | 1000 to 10000 | 
C[C@@H]1C[C@@H]2c3c(F)cc(C(=O)NO)cc3CCN2C1 (single isomer, unassigned) [Compound 151] | 1 to 10 | 1 to 100 | 
C[C@@H]1C[C@H]2c3c(F)cc(C(=O)NO)cc3CCN2C1 (single isomer, unassigned) [Compound 152] | 1 to 10 | 1 to 100 | 
C[C@H]1C[C@@H]2c3c(F)cc(C(=O)NO)cc3CCN2C1 (single isomer, unassigned) [Compound 153] | 1 to 10 | 100 to 1000 | 
C[C@H]1C[C@H]2c3c(F)cc(C(=O)NO)cc3CCN2C1 (single isomer, unassigned) [Compound 154] | 1 to 10 | 100 to 1000 | 
C[C@@H]1CC[C@@H]2c3c(F)cc(C(=O)NO)cc3CCN12 (single isomer, unassigned) [Compound 156] | 1 to 10 | 100 to 1000 | 
C[C@H]1CC[C@H]2c3c(F)cc(C(=O)NO)cc3CCN12 (single isomer, unassigned) [Compound 157] | 1 to 10 | 1 to 100 | 

Compound | IC50 (Full length Human HDAC8) [µM] | IC50 (Full length Human HDAC6) [nM] | Selectivity (6 v 8) (Full length Human HDAC6)
C[C@@H]1CC[C@H]2c3c(F)cc(C(=O)NO)cc3CCN12 (single isomer, unassigned) [Compound 158] | 1 to 10 | 1 to 100 | 
C[C@H]1CC[C@@H]2c3c(F)cc(C(=O)NO)cc3CCN21 (single isomer, unassigned) [Compound 159] | 1 to 10 | 100 to 1000 | 
CN1Cc2cc(C(=O)NO)ccc2[C@@H]2CCCN21 (single isomer, unassigned) [Compound 160] | 0.1 to 1 | 100 to 1000 | 
CN1Cc2cc(C(=O)NO)ccc2[C@H]2CCCN21 (single isomer, unassigned) [Compound 161] | 1 to 10 | 100 to 1000 | 
O=C(NO)c1ccc2c(c1)CN1CCC[C@@H]21 (single isomer, unassigned) [Compound 165] |  |  | III (III: >10-100)
CC[C@@H]1N(Cc2ccc(C(=O)NO)cc2F)CC12CCCC2 (single isomer, unassigned) [Compound 168] | 1 to 10 | 100 to 1000 | 
O=C(NO)c1cc(F)c2c(c1)CCN(C[C@@H]1CCCCO1)C2 (single isomer, unassigned) [Compound 174] | 10 to 100 | 1 to 100 | IV (IV: >100-1000)
O=C(NO)c1cc(F)c2c(c1)CCN(C[C@H]1CCCCO1)C2 (single isomer, unassigned) [Compound 175] | 10 to 100 | 1 to 100 | IV (IV: >100-1000)
O=C(NO)c1cc(F)c2c(c1)CCN([C@@H]1CCC3(CCCC3)C1)C2 (single isomer, unassigned) [Compound 184] | 1 to 10 | 1 to 100 | IV (IV: >100-1000)
O=C(NO)c1cc(F)c2c(c1)CCN([C@H]1CCC3(CCCC3)C1)C2 (single isomer, unassigned) [Compound 185] | 10 to 100 | 1 to 100 | IV (IV: >100-1000)
O=C(NO)c1cc(F)c2c(c1)CCN(C1CC3(CCOC3)C1)C2 (single isomer, unassigned) [Compound 188, 8-fluoro-N-hydroxy-2-(6-oxaspiro[3.4]octan-2-yl)-1,2,3,4-tetrahydroisoquinoline-6-carboxamide] | 10 to 100 | 1 to 100 | IV (IV: >100-1000)
O=C(NO)c1cc(F)c(CN2C3CCC2COC3)cc1F [Compound 50] |  |  | III (III: >10-100)
O=C(NO)c1ccc(CN2C3CCCC2COC3)c(F)c1 [Compound 52] |  |  | III (III: >10-100)
CN1CC2CCC(C1)N2Cc1ccc(C(=O)NO)cc1F [Compound 56] |  |  | III (III: >10-100)
O=C(NO)c1ccc(CN2C3CCC2COC3)c(F)c1 [Compound 59] |  |  | III (III: >10-100)
O=C(NO)c1ccc(CN2C3CCCC2CCC3)c(F)c1 [Compound 60] |  |  | II (II: >1-10)
O=C(NO)c1ccc(CN2C3CCCC2CC3)c(F)c1 [Compound 61] |  |  | II (II: >1-10)
O=C1CC2CCCC(C1)N2Cc1ccc(C(=O)NO)cc1F [Compound 62] |  |  | III (III: >10-100)
O=C1CC2CCC(C1)N2Cc1ccc(C(=O)NO)cc1F [Compound 63] |  |  | III (III: >10-100)
O=C(NO)c1ccc(CN2CCC3(CCCCC3)C2)c(F)c1 [Compound 75, 4-((2-Azaspiro[4.5]decan-2-yl)methyl)-3-fluoro-N-hydroxybenzamide] |  |  | III (III: >10-100)
